We go through four molecules from paper PMC4786417, “Ternatin and improved synthetic variants kill cancer cells by targeting the elongation factor-1A ternary complex” (eLife, 2015).

In one assay the test system is HCT116 cells. The assay is described as follows: HCT116 cell proliferation assay (alamarBlue, 72 hr). The class given is cell-based. As to conditions: read-out: effect on HCT116 cell proliferation (no effect up to). As for the experimental part: HCT116 cells (ATCC, Manassas, VA) were maintained in McCoy’s 5A media (Gibco, Grand Island, NY) supplemented with 10% fetal bovine serum (Axenia Biologix, Dixon, CA), 100 units/mL penicillin, and 100 ug/mL streptomycin (Gibco). Mutant HCT116 cells were obtained from Dominic Hoepfner ([Krastel et al., 2015]). HEK293T cells (ATCC) and HeLa cells (ATCC) were maintained in DMEM (Gibco) supplemented with 10% fetal bovine serum, 100 units/mL penicillin, and 100 μg/mL streptomycin. All other cell lines were obtained from the Cancer Cell Line Encyclopedia collection and were maintained as described ([Barretina et al., 2012]). All cell lines were tested for mycoplasma (Lonza, CH) before use and were SNP-typed to verify that their identity matched that of the originally procured sample. […]
Growing cells were briefly trypsinized and repeatedly pipetted to produce a homogenous cell suspension. […] Fluorescence intensity was measured hourly to determine the linear range for each assay (Ex 545 nm, Em 590 nm, Spectra Max M5, Molecular Devices, Sunnyvale, CA). Proliferation curves were generated by first normalizing fluorescence intensity in each well to the DMSO-treated plate average. Normalized fluorescence intensity was plotted in GraphPad Prism (GraphPad, La Jolla, CA), and IC50 values calculated from nonlinear regression curves. […]

The subject of assay [1] is global protein synthesis in HCT116 cells. The experiment in a line: 35S-methionine incorporation. The class given is cell-based. As to conditions: 5 hr compound then 35S-Met 1 hr, autoradiography / scintillation counting after TCA precipitation (mean ± SEM, n = 3). As for the experimental part:
HCT116 cells at 80% confluence in 12-well plates were incubated with compounds for 5 hr at 37°C. The cell culture media was replaced with methionine- and cysteine-free DMEM with the appropriate amount of compound. ^35S-methionine (PerkinElmer EasyTag, 40 μCi/well) was added and cells were incubated for 1 hr. Subsequently, media was aspirated and cells were washed twice with ice-cold phosphate-buffered saline (PBS). For samples analyzed by SDS-PAGE/autoradiography (Figure 2a), cells were lysed in buffer (PBS, 0.5% Triton X-100, Roche complete protease inhibitor cocktail, Roche, Indianapolis, IN) and protein content was normalized by Bradford assay. Dried gels were exposed to a storage phosphor screen (Amersham Biosciences, UK) overnight and scanned with a Typhoon imager (GE Life Sciences, Pittsburgh, PA). Bulk incorporation measurements (Figure 2b) were made by treating cells with cold 10% trichloroacetic acid (TCA, 0.5 mL) for 10 min. Precipitated monolayers were washed with 10% TCA (2 × 0.5 mL) and solubilized in 0.2 N NaOH (0.5 mL). Aliquots (100 μL) were diluted into liquid scintillation fluid and radioactivity was quantified by scintillation counting.

In a further assay the test system is adipogenesis. As to conditions: ref Shimokawa et al., 2008b; cited from earlier work. As for the experimental part: Ternatin (1, Figure 1a) is an N-methylated cyclic heptapeptide that inhibits adipogenesis at low nanomolar concentrations (EC50 20 nM) and becomes cytotoxic at ten-fold higher concentrations ([Shimokawa et al., 2008a]). […] Motivating the current study, ternatin's molecular target and mechanism of action were completely unknown. While searching for cyclic peptides that, like ternatin, incorporate a β-hydroxy leucine, we found a paten ...

The subject of assay [2] is 50-kDa protein (eEF1A) in HEK293T cell lysates. The assay is described as follows: Photo-affinity labeling of cell lysates with probe 5. The assay is classed as binding. The conditions noted are these: competitor 10 min before 5 (2 μM) 20 min, UV, TAMRA-azide click. As for the experimental part:
Lysates were prepared from HEK293T cells by washing a monolayer of cells once with ice-cold PBS and briefly freezing at –80°C. Lysis buffer (25 mM HEPES-KOH pH 7.3, 100 mM KOAc, 5 mM MgOAc2, 1 mM TCEP, 1 mM PMSF, Roche EDTA-free complete protease inhibitor) was added, and cells were detached with a cell scraper. Crude lysates were clarified by centrifugation (15 min at 14,000 rpm), protein was quantified by Bradford assay, and the protein concentration was brought to 1.5 mg/mL with lysis buffer. Lysates were processed for photo-labeling as described below. For samples treated with RNase A, RNase A (Roche) was added to lysates (10 mg/mL final concentration) and incubated for 20 min at RT.
Photo-labeling experiments were preformed essentially as described ([MacKinnon and Taunton, 2009]; [MacKinnon et al., 2007]). Reactions (100 μL) were treated with DMSO (1 μL) or competitor in DMSO as 100X stocks and incubated for 10 min at RT, then treated with photo-probe 5 and incubated for 20 min. Reactions were transferred to 96-well plates and irradiated with long-wave UV light (λmax = 355 nm, 1000 W, 90 s). […] Gels were scanned for TAMRA fluorescence (532 nm excitation laser, 568 nm emission measured with LPG filter) on a Typhoon FLA 9000 scanner (GE Life Sciences).

Assay [3] concerns translation initiation/elongation in HeLa cells. The experiment in a line: Ribosome/polysome profiles. The assay is classed as cell-based. The conditions noted are these: 4 (5 μM) or cycloheximide (100 μg/mL) 15 min, then harringtonine 2 μg/mL 20 min. As for the experimental part: HeLa cells grown to 80% confluence in 10-cm dishes were treated with DMSO or 4 (5 μM) for 20 min (Figure 2c, left panel), or were first treated with DMSO, 4 (5 μM), or cycloheximide (CHX, 100 μg/mL, Sigma, St. Louis, MO) for 15 min, followed by harringtonine (2 μg/mL, LKT Laboratories, St. Paul, MN) for 20 min. Following treatment, dishes were placed on ice, media aspirated, and cells were washed once with ice-cold PBS. Cells were scraped into 400 μL lysis buffer (20 mM Tris-HCl pH 7.5, 150 mM NaCl, 5 mM MgCl2, 1 mM DTT, 1% Triton X-100, 100 μg/mL CHX). Lysates were incubated for 10 min on ice, then passed through a 26-G needle 5 times. Samples were clarified by centrifugation at 14,000 rpm for 10 min at 4°C. Lysates were applied to 10–50% sucrose gradients (prepared in 20 mM Tris-HCl pH 7.5, 150 mM NaCl, 5 mM MgCl2, 1 mM DTT, 100 μg/mL CHX), followed by centrifugation at 35,000 rpm for 3 hr in a SW41 rotor at 4°C. Ribosome/polysome profiles were obtained by flowing the gradient top to bottom through an in-line spectrometer (254 nm, EM-1 Econo UV Monitor, BioRad, Hercules, CA).

A value given as a limit tells only on which side of the number the result lay.

Take ternatin-4-Ala [Compound 2]: the IC50 with HCT116 cells is over 10 µM. Moreover, the “effect on global protein synthesis (35S-methionine labeling)” value in assay [1] was “no effect”. For the same molecule, in the assay on adipogenesis, the “biological activity (adipogenesis assay)” value was “abolished biological activity”.
On to `CO[C@H]1\C=C/C=C\C=C/C[C@H](OC(=O)[C@@H](C)NC(=O)C2CCCCC2)[C@H](C)[C@@H](O)/C(C)=C\CCc2cc(O)cc(c2O)NC(=O)C1` [ansatrienin B], for which the “competition of labeling of the 50-kDa band by probe 5” value in assay [2] is given as “abolished”.
On the same count and under the same terms, then didemnin B, with “abolished”.
For the molecule `C[C@@H]1C[C@@H]([C@H](O)CC2CC(=O)NC(=O)C2)C(=O)[C@@H](C)C1` [cycloheximide], in assay [3], the harringtonine-induced polysome depletion entry is recorded as “completely blocked”.
